In patent US12679824B2 (Hoffmann-La Roche Inc., priority 2020, dated 2026):

Each molecule was assayed on Acinetobacter baumannii ATCC17961 (assay: 90% Growth Inhibitory Concentration (IC90) determination, antimicrobial susceptibility testing). Settings: Acinetobacter baumannii, ATCC17961, 16 h, Acinetobacter baumannii ATCC17961; Iso-Sensitest broth; growth by optical density at 600 nm over 16h; concentration inhibiting 90% of the growth; read-out: ATCC 17961 IC90.
Format: cell-based
In short: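 Broth microdilution in Iso-Sensitest medium, compounds twofold diluted (e.g. 50–0.097 μM final), inoculum ~5×10^(5) CFU/ml, 35±2° C. OD600 was read every 20 min over 16 h. IC90 was derived from growth inhibition during logarithmic growth.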
For `Cn1c(-c2cn(-c3ccc(N)cn3)nc2C(F)(F)F)cnc1C(=O)Nc1ccc(C(=O)NCC2CCN(C(=O)[C@@H]3C[C@@H](O)CN3)CC2)c(Cl)c1` [Example Z34, 5-[1-(5-amino-2-pyridyl)-3-(trifluoromethyl)pyrazol-4-yl]-N-[3-chloro-4-[[1-[(2S,4R)-4-hydroxyprolyl]-4-piperidyl]methylcarbamoyl]phenyl]-1-methyl-imidazole-2-carboxamide], the IC90 was 410 nM.
In the case of `CN(C(=O)c1ccc(NC(=O)c2ncc(-c3cn(-c4ccc(N)cn4)nc3C(F)(F)F)n2C)cc1Cl)C1CCN(C(=O)[C@@H]2C[C@@H](O)CN2)CC1` [Example Z35, 5-[1-(5-amino-2-pyridyl)-3-(trifluoromethyl)pyrazol-4-yl]-N-[3-chloro-4-[[1-[(2S,4R)-4-hydroxyprolyl]-4-piperidyl]-methyl-carbamoyl]phenyl]-1-methyl-imidazole-2-carboxamide], the IC90 is reported as 270 nM.
Molecule `Cn1c(-c2cn(-c3ccc(N)cn3)nc2C(F)(F)F)cnc1C(=O)Nc1ccc(C(=O)NCC2CC2NC(=O)[C@@H]2C[C@@H](O)CN2)c(Cl)c1` (stereo partly drawn) [Example Z36, 5-[1-(5-amino-2-pyridyl)-3-(trifluoromethyl)pyrazol-4-yl]-N-[3-chloro-4-[[2-[[(2S,4R)-4-hydroxyprolyl]amino]cyclopropyl]methylcarbamoyl]phenyl]-1-methyl-imidazole-2-carboxamide] has an IC90 of 1180 nM.
`Cn1c(-c2cn(-c3ccc(N)cn3)nc2C(F)(F)F)cnc1C(=O)Nc1ccc(C(=O)N2CC3CN(C(=O)[C@@H]4C[C@@H](O)CN4)CC3C2)c(Cl)c1` (stereo partly drawn) [Example Z37, 5-[1-(5-amino-2-pyridyl)-3-(trifluoromethyl)pyrazol-4-yl]-N-[3-chloro-4-[5-[(2S,4R)-4-hydroxyprolyl]-1,3,3a,4,6,6a-hexahydropyrrolo[3,4-c]pyrrole-2-carbonyl]phenyl]-1-methyl-imidazole-2-carboxamide] showed an IC90 of 500 nM.
With `Cn1c(-c2cn(-c3ccc(N)cn3)nc2C(F)(F)F)cnc1C(=O)Nc1ccc(C(=O)N[C@H]2C[C@H](NC(=O)[C@@H]3C[C@@H](O)CN3)C2)c(Cl)c1` [Example Z38, 5-[1-(5-amino-2-pyridyl)-3-(trifluoromethyl)pyrazol-4-yl]-N-[3-chloro-4-[trans-[3-[[(2S,4R)-4-hydroxyprolyl]amino]cyclobutyl]carbamoyl]phenyl]-1-methyl-imidazole-2-carboxamide] the IC90 was 660 nM.
In the case of `Cn1c(-c2cn(-c3ccc(N)cn3)nc2C(F)(F)F)cnc1C(=O)Nc1ccc(C(=O)N2CC[C@@H](CNC(=O)[C@@H]3C[C@@H](O)CN3)C2)c(Cl)c1` [Example Z39, 5-[1-(5-amino-2-pyridyl)-3-(trifluoromethyl)pyrazol-4-yl]-N-[3-chloro-4-[(3S)-3-[[[(2S,4R)-4-hydroxyprolyl]amino]methyl]pyrrolidine-1-carbonyl]phenyl]-1-methyl-imidazole-2-carboxamide], the IC90 is reported as 580 nM.
With `Cn1c(-c2cn(-c3ccc(N)cn3)nc2C(F)(F)F)cnc1C(=O)Nc1ccc(C(=O)NCCOCCNC(=O)[C@@H]2C[C@@H](O)CN2)c(Cl)c1` [Example Z40, 5-[1-(5-amino-2-pyridyl)-3-(trifluoromethyl)pyrazol-4-yl]-N-[3-chloro-4-[2-[2-[[(2S,4R)-4-hydroxyprolyl]amino]ethoxy]ethylcarbamoyl]phenyl]-1-methyl-imidazole-2-carboxamide] the IC90 was 780 nM.
`Cn1c(-c2cn(-c3ccc(N)cn3)nc2C(F)(F)F)cnc1C(=O)Nc1ccc(C(=O)N[C@@H]2COC3(C2)CN(C(=O)[C@@H]2C[C@@H](O)CN2)C3)c(Cl)c1` [Example Z41, 5-[1-(5-amino-2-pyridyl)-3-(trifluoromethyl)pyrazol-4-yl]-N-[3-chloro-4-[[(7S)-2-[(2S,4R)-4-hydroxyprolyl]-5-oxa-2-azaspiro[3.4]octan-7-yl]carbamoyl]phenyl]-1-methyl-imidazole-2-carboxamide] was tested, and the IC90 was 300 nM.
Molecule `Cn1c(-c2cn(-c3ccc(N)cn3)nc2C(F)(F)F)cnc1C(=O)Nc1ccc(C(=O)N2CC[C@H](CNC(=O)[C@@H]3C[C@@H](O)CN3)C2)c(Cl)c1` [Example Z44, 5-[1-(5-amino-2-pyridyl)-3-(trifluoromethyl)pyrazol-4-yl]-N-[3-chloro-4-[(3R)-3-[[[(2S,4R)-4-hydroxyprolyl]amino]methyl]pyrrolidine-1-carbonyl]phenyl]-1-methyl-imidazole-2-carboxamide] has an IC90 of 810 nM.
`CN(C(=O)[C@@H]1C[C@@H](O)CN1)C1CCN(C(=O)c2ccc(NC(=O)c3ncc(-c4cn(-c5ccc(N)cn5)nc4C(F)(F)F)n3C)cc2Cl)CC1` [Example Z46, 5-[1-(5-amino-2-pyridyl)-3-(trifluoromethyl)pyrazol-4-yl]-N-[3-chloro-4-[4-[[(2S,4R)-4-hydroxyprolyl]-methyl-amino]piperidine-1-carbonyl]phenyl]-1-methyl-imidazole-2-carboxamide] was tested, and the IC90 was 390 nM.
`Cn1c(-c2cn(-c3ccc(N)cn3)nc2C(F)(F)F)cnc1C(=O)Nc1ccc(C(=O)N[C@H]2CC[C@H](NC(=O)[C@@H]3C[C@@H](O)CN3)C2)c(Cl)c1` [Example Z48, 5-[1-(5-amino-2-pyridyl)-3-(trifluoromethyl)pyrazol-4-yl]-N-[3-chloro-4-[[(1S,3S)-3-[[(2S,4R)-4-hydroxyprolyl]amino]cyclopentyl]carbamoyl]phenyl]-1-methyl-imidazole-2-carboxamide] showed an IC90 of 510 nM.
`COc1cc(-n2cc(-c3cnc(C(=O)Nc4ccc(C(=O)N5CCN(C(=O)C6CCNCC6)CC5)c(Cl)c4)n3C)c(C(F)(F)F)n2)ncn1` [Example Z49, N-[3-chloro-4-(4-isonipecotoylpiperazine-1-carbonyl)phenyl]-5-[1-(6-methoxypyrimidin-4-yl)-3-(trifluoromethyl)pyrazol-4-yl]-1-methyl-imidazole-2-carboxamide] was tested, and the IC90 was 840 nM.
`Cn1c(-c2cn(-c3ccnc(Cl)c3)nc2C(F)(F)F)cnc1C(=O)Nc1ccc(C(=O)N2CCN(C(=O)C3CCNCC3)CC2)c(Cl)c1` [Example Z50, N-[3-chloro-4-(4-isonipecotoylpiperazine-1-carbonyl)phenyl]-5-[1-(2-chloro-4-pyridyl)-3-(trifluoromethyl)pyrazol-4-yl]-1-methyl-imidazole-2-carboxamide] gave an IC90 of 800 nM.
Work on `Cn1c(-c2cn(-c3ccc(N)cn3)nc2C(F)(F)F)cnc1C(=O)Nc1ccc(C(=O)N2CCNC3(CC3)C2)c(Cl)c1` [Example Z51, 5-[1-(5-amino-2-pyridyl)-3-(trifluoromethyl)pyrazol-4-yl]-N-[3-chloro-4-(4,7-diazaspiro[2.5]octane-7-carbonyl)phenyl]-1-methyl-imidazole-2-carboxamide] yielded an IC90 of 990 nM.
In the case of `C[C@@H]1CN(C(=O)c2ccc(NC(=O)c3ncc(-c4cn(-c5ccc(N)cn5)nc4C(F)(F)F)n3C)cc2Cl)CCCN1` [Example Z52, 5-[1-(5-amino-2-pyridyl)-3-(trifluoromethyl)pyrazol-4-yl]-N-[3-chloro-4-[(3R)-3-methyl-1,4-diazepane-1-carbonyl]phenyl]-1-methyl-imidazole-2-carboxamide], the IC90 is reported as 1270 nM.
For `Cn1c(-c2cn(-c3ccc(N)cn3)nc2C(F)(F)F)cnc1C(=O)Nc1ccc(C(=O)N2CC3CCCC(C2)N3)c(Cl)c1` [Example Z53, 5-[1-(5-amino-2-pyridyl)-3-(trifluoromethyl)pyrazol-4-yl]-N-[3-chloro-4-(3,9-diazabicyclo[3.3.1]nonane-3-carbonyl)phenyl]-1-methyl-imidazole-2-carboxamide], the IC90 was 500 nM.
For `C[C@@H]1CNC[C@H](C)N1C(=O)c1ccc(NC(=O)c2ncc(-c3cn(-c4ccc(N)cn4)nc3C(F)(F)F)n2C)cc1Cl` [Example Z54, 5-[1-(5-amino-2-pyridyl)-3-(trifluoromethyl)pyrazol-4-yl]-N-[3-chloro-4-[(2S,6R)-2,6-dimethylpiperazine-1-carbonyl]phenyl]-1-methyl-imidazole-2-carboxamide], the IC90 was 350 nM.
For `Cn1c(-c2cn(-c3ccc(N)cn3)nc2C(F)(F)F)cnc1C(=O)Nc1ccc(C(=O)N2C3CNCC2C3)c(Cl)c1` [Example Z55, 5-[1-(5-amino-2-pyridyl)-3-(trifluoromethyl)pyrazol-4-yl]-N-[3-chloro-4-(3,6-diazabicyclo[3.1.1]heptane-6-carbonyl)phenyl]-1-methyl-imidazole-2-carboxamide], the IC90 was 340 nM.
For `C[C@H]1CNCCN1C(=O)c1ccc(NC(=O)c2ncc(-c3cn(-c4ccc(N)cn4)nc3C(F)(F)F)n2C)cc1Cl` [Example Z56, 5-[1-(5-amino-2-pyridyl)-3-(trifluoromethyl)pyrazol-4-yl]-N-[3-chloro-4-[(2S)-2-methylpiperazine-1-carbonyl]phenyl]-1-methyl-imidazole-2-carboxamide], the IC90 was 400 nM.
With `Cn1c(-c2cn(-c3ccc(N)cn3)nc2C(F)(F)F)cnc1C(=O)Nc1ccc(C(=O)N2CCNC(C)(C)C2)c(Cl)c1` [Example Z57, 5-[1-(5-amino-2-pyridyl)-3-(trifluoromethyl)pyrazol-4-yl]-N-[3-chloro-4-(3,3-dimethylpiperazine-1-carbonyl)phenyl]-1-methyl-imidazole-2-carboxamide] the IC90 was 1290 nM.

Same assay, conditions: Acinetobacter baumannii, ATCC17961, 16 h, read-out: ATCC 17961 IC90
Molecule `Cn1c(-c2cn(-c3ccc(N)cn3)nc2C(F)(F)F)cnc1C(=O)Nc1ccc(C(=O)N2CCC(CNC(=O)[C@@H]3C[C@@H](O)CN3)CC2)c(Cl)c1` [Example Z45, 5-[1-(5-amino-2-pyridyl)-3-(trifluoromethyl)pyrazol-4-yl]-N-[3-chloro-4-[4-[[[(2S,4R)-4-hydroxyprolyl]amino]methyl]piperidine-1-carbonyl]phenyl]-1-methyl-imidazole-2-carboxamide] has an IC90 of 650 nM.
`Cn1c(-c2cn(-c3ccc(N)cn3)nc2C(F)(F)F)cnc1C(=O)Nc1ccc(C(=O)NC23CC(NC(=O)[C@@H]4C[C@@H](O)CN4)(C2)C3)c(Cl)c1` [Example Z47, 5-[1-(5-amino-2-pyridyl)-3-(trifluoromethyl)pyrazol-4-yl]-N-[3-chloro-4-[[3-[[(2S,4R)-4-hydroxyprolyl]amino]-1-bicyclo[1.1.1]pentanyl]carbamoyl]phenyl]-1-methyl-imidazole-2-carboxamide] gave an IC90 of 580 nM.
